Patent US11453660B2, “Androgen receptor and glucocorticoid receptor modulators” (ONCOSTELLAE, S.L., priority 2017, dated 2022)
Structures can show the parent of a compound that is named as a salt.

Assays:
Rat Androgen Receptor = target: T1, Rat Androgen Receptor (Rattus norvegicus, UniProt P15207); test: Rat Androgen Receptor Binding (polarscreen AR competitor assay, fluorescence polarization); conditions: displacement of Fluormone AL Green, 4 hours at RT, read-out: AR rat-fluorimetric
T1 construct: purchased Life Technologies A15880
T1 sequence (P15207 646-902 limits assumed): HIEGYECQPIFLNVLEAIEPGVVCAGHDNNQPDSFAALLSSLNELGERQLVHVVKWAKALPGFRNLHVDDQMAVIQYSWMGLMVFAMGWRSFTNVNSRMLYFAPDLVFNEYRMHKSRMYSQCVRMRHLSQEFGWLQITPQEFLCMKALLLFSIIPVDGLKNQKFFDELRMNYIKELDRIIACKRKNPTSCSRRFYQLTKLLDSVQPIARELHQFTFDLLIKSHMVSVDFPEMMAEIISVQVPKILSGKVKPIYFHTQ
Method: Pharmacological Activity Rat Androgen Receptor Binding
The assay was carried out following the instructions of polarscreen AR competitor assay green kit (Life Technologies, Cat #.: A15880). Briefly, the test is based on measuring the changes of fluorescence polarization shown by the Fluormone AL Green. Thus, when the Fluormone is bound to the receptor, a fluorescence polarization is observed that diminishes when a ligand competes for the receptor binding site and the Fluormone gets displaced.
The inhibition values for each of the compounds are measured in duplicate at 1 and 10 μM and the plate is incubated for 4 hours at RT. Fluorescence polarization is the measured in a Tecan Infinite M1000 Pro reader (λexc=485 nm, λem=535 nm). In order to obtain a dose-response curve and calculate the potency of inhibition (expressed as IC50) for AR, a series of 1:10 dilutions in test in 1× buffer from 10 μM to 0.1 nM for each compound was carried out.

human androgen receptor = target: T2, human androgen receptor (Homo sapiens, UniProt P10275, T878A); test: Human Androgen Receptor Binding (radioligand binding, LnCap prostate cancer cell line); conditions: LnCap cells, displacement of [^3H]-methyltrienolone, 2 hours at 37° C.; read-out: AR LNCaP
T2 construct: endogenously expressed human androgen receptor using the LnCap prostate cancer cell line; endogenous in cells; host or cells: LNCaP prostate cancer cell line (whole cells)
T2 sequence (P10275 1-920 T878A): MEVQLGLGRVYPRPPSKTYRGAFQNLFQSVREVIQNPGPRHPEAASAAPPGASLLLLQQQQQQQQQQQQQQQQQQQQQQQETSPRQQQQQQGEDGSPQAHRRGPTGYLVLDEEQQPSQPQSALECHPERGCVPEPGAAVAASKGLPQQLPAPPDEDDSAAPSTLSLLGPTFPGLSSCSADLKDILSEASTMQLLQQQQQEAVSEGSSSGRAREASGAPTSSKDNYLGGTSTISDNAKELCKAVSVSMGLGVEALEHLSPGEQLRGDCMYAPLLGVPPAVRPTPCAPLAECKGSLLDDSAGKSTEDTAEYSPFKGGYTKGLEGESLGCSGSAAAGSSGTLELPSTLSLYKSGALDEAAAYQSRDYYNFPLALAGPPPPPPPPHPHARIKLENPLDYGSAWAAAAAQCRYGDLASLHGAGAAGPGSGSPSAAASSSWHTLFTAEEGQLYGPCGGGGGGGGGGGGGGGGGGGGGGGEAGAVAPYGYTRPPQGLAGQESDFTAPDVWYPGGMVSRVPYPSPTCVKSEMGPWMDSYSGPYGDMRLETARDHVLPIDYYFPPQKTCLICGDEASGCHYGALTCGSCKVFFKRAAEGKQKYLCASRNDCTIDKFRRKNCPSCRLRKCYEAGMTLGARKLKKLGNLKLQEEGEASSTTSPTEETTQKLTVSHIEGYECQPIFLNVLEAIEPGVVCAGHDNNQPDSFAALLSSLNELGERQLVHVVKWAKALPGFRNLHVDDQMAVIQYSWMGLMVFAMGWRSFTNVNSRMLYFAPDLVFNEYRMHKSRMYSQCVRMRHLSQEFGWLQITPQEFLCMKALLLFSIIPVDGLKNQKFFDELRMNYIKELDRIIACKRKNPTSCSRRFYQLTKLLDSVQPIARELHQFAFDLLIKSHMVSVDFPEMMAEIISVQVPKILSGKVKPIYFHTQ
Procedure, shortened: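 Whole-cell displacement of [3H]-methyltrienolone from endogenous AR (T878A) in LnCap cells, in RPMI with 0.1% BSA and triamcinolone acetonide. Compounds 10 μM to 0.1 nM in 1:10 steps, 2 h at 37 °C; cells washed, SDS-lysed, bound radioactivity by scintillation counting for IC50.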

[1] = target: T3, Human Glucocorticoid Receptor (Homo sapiens, UniProt P04150); test: Competition Binding in IM-9 Human Glucocorticoid Receptor (GR IM-9); conditions: cytosol from IM-9 cell line, 1.5 nM [3H]-Dexamethasone, 4° C. for 6 hours
T3 construct: endogenous in cells; host or cells: cytosol from IM-9 cell line
T3 sequence (P04150 1-777): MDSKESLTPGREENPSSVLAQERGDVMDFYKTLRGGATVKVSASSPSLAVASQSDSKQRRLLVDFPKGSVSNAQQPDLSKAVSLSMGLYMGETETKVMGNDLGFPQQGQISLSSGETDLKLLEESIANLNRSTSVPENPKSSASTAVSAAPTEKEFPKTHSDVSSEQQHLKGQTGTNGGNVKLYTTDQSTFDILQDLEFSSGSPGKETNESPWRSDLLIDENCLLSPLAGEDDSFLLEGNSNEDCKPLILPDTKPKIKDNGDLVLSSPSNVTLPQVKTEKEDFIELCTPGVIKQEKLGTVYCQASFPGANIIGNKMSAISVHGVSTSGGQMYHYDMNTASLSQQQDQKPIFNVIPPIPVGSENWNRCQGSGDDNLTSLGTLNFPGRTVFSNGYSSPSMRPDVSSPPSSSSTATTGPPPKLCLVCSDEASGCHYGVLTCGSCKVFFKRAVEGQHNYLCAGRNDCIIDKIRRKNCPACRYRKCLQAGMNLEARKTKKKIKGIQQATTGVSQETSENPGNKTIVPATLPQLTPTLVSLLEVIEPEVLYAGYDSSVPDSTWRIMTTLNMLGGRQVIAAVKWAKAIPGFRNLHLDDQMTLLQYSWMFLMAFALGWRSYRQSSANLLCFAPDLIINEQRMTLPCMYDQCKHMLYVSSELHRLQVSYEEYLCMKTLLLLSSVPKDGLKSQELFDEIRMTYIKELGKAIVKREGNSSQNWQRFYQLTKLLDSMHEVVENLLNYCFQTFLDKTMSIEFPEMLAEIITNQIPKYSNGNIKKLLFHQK
Procedure, shortened: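 Radioligand competition using 100 μg IM-9 cell cytosol and 1.5 nM [3H]-dexamethasone, incubated 6 h at 4° C in TES/molybdate buffer, pH 7.4. Filtration on PEI-treated GF/B filters, scintillation counting; nonspecific binding defined with 10 μM triamcinolone.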

IC50 (Rat Androgen Receptor) | IC50 (human androgen receptor) | IC50 [1] | SMILES
0.1 to 1 µM | 0.1 to 1 µM | < 0.1 µM | CC(=O)C1=C(C)NC(C)=C(C(=O)OCC2CC2)C1c1csc2ccccc12 (stereo not shown) [Example C6, Cyclopropylmethyl 5-acetyl-4-(benzo[b]thiophen-3-yl)-2,6-dimethyl-1,4-dihydropyridine-3-carboxylate]
0.1 to 1 µM | 0.1 to 1 µM |  | COC(=O)C1=C(CF)NC(C)=C(C(C)=O)C1c1csc2ccccc12 (stereo not shown) [Example C20, Methyl 5-acetyl-4-(benzo[b]thiophen-3-yl)-2-(fluoromethyl)-6-methyl-1,4-dihydropyridine-3-carboxylate]
0.1 to 1 µM |  | < 0.1 µM | CC(=O)C1=C(C)NC(C)=C(C(=O)OCC2CCCC2)C1c1csc2ncccc12 (stereo not shown) [Example C35, Cyclopentylmethyl 5-acetyl-2,6-dimethyl-4-(thieno[2,3-b]pyridin-3-yl)-1,4-dihydropyridine-3-carboxylate]
< 0.1 µM | < 0.1 µM |  | CC1=C(C#N)C(c2csc3ccccc23)C(C#N)=C(C)N1 [Example E1, 4-(Benzo[b]thiophen-3-yl)-2,6-dimethyl-1,4-dihydropyridine-3,5-dicarbonitrile]
< 0.1 µM | < 0.1 µM |  | CC(=O)C1=C(C)NC(C)=C(C(C)=O)C1c1csc2ccccc12 [Example G1, 1,1′-(4-(benzo[b]thiophen-3-yl)-2,6-dimethyl-1,4-dihydropyridine-3,5-diyl)diethanone]
< 0.1 µM | 0.1 to 1 µM |  | CC(=O)C1=C(C)NC(C)=C(C(C)=O)C1c1csc2ncccc12 [Example H15, 1,1′-(2,6-Dimethyl-4-(thieno[2,3-b]pyridin-3-yl)-1,4-dihydropyridine-3,5-diyl)bis(ethan-1-one)]
≥ 1 µM |  |  | COC(=O)C1=C(C)NC(C)=C(C(C)=O)C1c1csc2ccc(C#N)cc12 (stereo not shown) [Example J13, Methyl 5-acetyl-4-(5-cyanobenzo[b]thiophen-3-yl)-2,6-dimethyl-1,4-dihydropyridine-3-carboxylate]
≥ 1 µM |  |  | COC(=O)C1=C(C)NC(C)=C(C(C)=O)C1c1csc2ccc(C(=O)O)cc12 (stereo not shown) [Example J14, 3-(3-acetyl-5-(methoxycarbonyl)-2,6-dimethyl-1,4-dihydropyridin-4-yl)benzo[b]thiophene-5-carboxylic acid]
≥ 1 µM |  |  | COC(=O)C1=C(C)NC(C)=C(C(C)=O)C1c1csc2ccc(C(=O)NC3CC3)cc12 (stereo not shown) [Example J15, Methyl 5-acetyl-4-(5-(cyclopropylcarbamoyl)benzo[b]thiophen-3-yl)-2,6-dimethyl-1,4-dihydropyridine-3-carboxylate]
≥ 1 µM |  |  | COC(=O)C1=C(C)NC(C)=C(C(C)=O)C1c1csc2ccc(C(=O)NCC3CC3)cc12 (stereo not shown) [Example J16, Methyl 5-acetyl-4-(5-((cyclopropylmethyl)carbamoyl)benzo[b]thiophen-3-yl)-2,6-dimethyl-1,4-dihydropyridine-3-carboxylate]
≥ 1 µM |  |  | COC(=O)C1=C(C)NC(C)=C(C(C)=O)C1c1csc2ccc(C(=O)N3CCN(C)CC3)cc12 (stereo not shown) [Example J17, Methyl 5-acetyl-2,6-dimethyl-4-(5-(4-methylpiperazine-1-carbonyl)benzo[b]thiophen-3-yl)-1,4-dihydropyridine-3-carboxylate]
≥ 1 µM |  |  | COC(=O)C1=C(C)NC(C)=C(C(C)=O)C1c1csc2ccc(C(=O)N3CCOCC3)cc12 (stereo not shown) [Example J18, Methyl 5-acetyl-2,6-dimethyl-4-(5-(morpholine-4-carbonyl)benzo[b]thiophen-3-yl)-1,4-dihydropyridine-3-carboxylate]
≥ 1 µM |  |  | COC(=O)C1=C(C)NC(C)=C(C(C)=O)C1c1csc2ccncc12 (stereo not shown) [Example J19, Methyl 5-acetyl-2,6-dimethyl-4-(thieno[3,2-c]pyridin-3-yl)-1,4-dihydropyridine-3-carboxylate]
0.1 to 1 µM |  |  | COC(=O)C1=C(C)NC(C)=C(C(C)=O)C1c1csc2cnccc12 (stereo not shown) [Example J20, Methyl 5-acetyl-2,6-dimethyl-4-(thieno[2,3-c]pyridin-3-yl)-1,4-dihydropyridine-3-carboxylate]
< 0.1 µM | < 0.1 µM |  | COC(=O)C1=C(C)NC(C)=C(C(C)=O)C1c1csc2ncccc12 (stereo not shown) [Example J21, Methyl 5-acetyl-2,6-dimethyl-4-(thieno[2,3-b]pyridin-3-yl)-1,4-dihydropyridine-3-carboxylate]
≥ 1 µM |  |  | COC(=O)C1=C(C2CC2)NC(C2CC2)=C(C(C)=O)C1c1csc2ccccc12 (stereo not shown) [Example J24, Methyl 5-acetyl-4-(benzo[b]thiophen-3-yl)-2,6-dicyclopropyl-1,4-dihydropyridine-3-carboxylate]
0.1 to 1 µM |  |  | COC(=O)C1=C(N)NC(C)=C(C(C)=O)C1c1csc2ccccc12 (stereo not shown) [Example K1, Methyl 5-acetyl-2-amino-4-(benzo[b]thiophen-3-yl)-6-methyl-1,4-dihydropyridine-3-carboxylate hydrochloride]
≥ 1 µM |  |  | COC(=O)C1=C(N)NC(C)=C(C(C)=O)C1c1csc2ccccc12 (stereo not shown) [Example K2, Methyl 5-acetyl-2-amino-4-(benzo[b]thiophen-3-yl)-6-methyl-1,4-dihydropyridine-3-carboxylate trifluoromethanesulfonate]
≥ 1 µM |  |  | CC(=O)C1=C(C)NC(C)=C(C(=O)OCc2cncc(-c3cccnc3)c2)C1c1csc2ncccc12 (stereo not shown) [Example L8, [3,3′-bipyridin]-5-ylmethyl 5-acetyl-2,6-dimethyl-4-(thieno[2,3-b]pyridin-3-yl)-1,4-dihydropyridine-3-carboxylate]
≥ 1 µM |  |  | CC(=O)C1=C(C)NC(C)=C(C(C)=O)C1c1csc2ccc(-c3cccnc3)cc12 [Example M1, 1,1′-(2,6-dimethyl-4-(5-(pyridin-3-yl)benzo[b]thiophen-3-yl)-1,4-dihydro-pyridine-3,5-diyl)diethanone]
